Experimental findings from patent US4579865A, “Benzofuranyl carbamates” (USV Pharmaceutical Corp., priority 1984, dated 1986) are described below.

Each structure is given as a SMILES string.

The test system of one assay is In Vivo Lipolysis. In words: In vivo lipolysis assay (serum unesterified fatty acids in fasted rats). Set-up: species or system rat. As to conditions: 2 hours after drug.
The next assay has as its system rat adipocyte lipolysis. Nature of the assay: Rat adipocyte assay (epinephrine-stimulated lipolysis, glycerol release). Format: cell-based. The following applies: rat adipocytes, epinephrine 3 μM plus methylisobutylxanthine 10 μM, 1 hour 37° C., read-out: Adipocyte I50. As for the experimental part: Abdominal fat pads were removed from male rats weighing 200-250 grams and placed in Krebs-bicarbonate buffer gassed with 95% O2 /5% CO2. The fat pads were digested with collagenase for 1 hour at 37° C., washed twice with Krebs-bicarbonate buffer and distributed among a set of 20 ml plastic counting vials. Two such vials received only buffer and cells (4 ml) but no agonists or antagonists. The remaining vials received epinephrine (3 μM) plus the phosphodiesterase inhibitor methylisobutylxanthine (10 μM). Test compounds were dissolved in DMSO or water to a concentration of […] and 40 μl was added to the buffer plus cells in the counting vials. The final compound concentration for routine screening was 200 μM (final concentration of DMSO=1%).
The cells were incubated for 1 hour at 37° C. under a 95% O2 /5% CO2 atmosphere. The incubation was stopped by placing the vials in crushed ice. The cells and medium were transferred to test tubes, centrifuged and the cell layer removed by aspiration. The aqueous phase was assayed for glycerol using the enzyme glycerol dehydrogenase. The glycerol dihydrogenase assay for glycerol depends on the enzyme catalyzed conversion of glycerol to glyceraldehyde and NAD to NADH. The assay can detect as little as 5-10 nanomoles of glycerol. The aqueous phase, following removal of cells, usually contained about 50 to 80 nanomoles of glycerol per 300 μl of assayed sample if no inhibitory activity was present. Samples from the control tubes (no agonist) usually contained 0-5 nanomoles of glycerol per 300 μl of sample.

For the next assay, the target named is Canine cardiac lipases. Nature of the assay: Myocardial lipase assay. In kind it is biochemical. As to conditions: triolein emulsion, pH 6.8, read-out: Lipase I50. The procedure: All compounds were dissolved in DMSO (final concentration 3.0%) and tested in duplicate at a concentration of 100 μM. Canine cardiac lipases were obtained by extracting washed heart membranes with buffer plus heparin and a small amount of Triton X-100 detergent. Because these enzymes are only active at an oil-water interface, the enzyme reaction is run in an oil-water emulsion that contains triolein substrate, Tris buffer (50 mM, pH 6.8) and a small amount of bovine serum albumin (0.5%) added to stabilize the emulsion. A small amount of tritiated triolein was added to the unlabelled triolein substrate. Tritium-labelled oleic acid released by the lipases was extracted into hexane, separated from unreacted triolein and counted in a scintillation counter. Inhibitory agents reduce the amount of radioactivity appearing in the free fatty acid fraction isolated in the extraction procedure.

For the compound `COc1ccc(NC(=O)Oc2cccc3ccoc23)cc1` [Example 1, 7-Benzofuranyl N-(4-methoxyphenyl)carbamate], in the assay on In Vivo Lipolysis (25 mg/Kg p.o.), the “In Vivo Lipolysis % Inhib. at mg/Kg” value is on record as 97%. Besides, the IC50 came to 0.3 µM in the assay with rat adipocyte lipolysis and 16 µM on Canine cardiac lipases.

As for `COc1ccc(NC(=O)Oc2cccc3ccoc23)c(OC)c1` [Example 2, 7-Benzofuranyl N-(2,4-dimethoxy)phenyl carbamate], in the assay with In Vivo Lipolysis (100 mg/Kg p.o.), the “In Vivo Lipolysis % Inhib. at mg/Kg” value is reported as 71%. The IC50 was 0.3 µM with rat adipocyte lipolysis and 40 µM at Canine cardiac lipases.

For the compound `O=C(NC1CCCCC1)Oc1cccc2ccoc12` [Example 3, 7-Benzofuranyl N-(cyclohexyl)carbamate], in the assay with In Vivo Lipolysis (100 mg/Kg p.o.), the “In Vivo Lipolysis % Inhib. at mg/Kg” value stood at 26%. The IC50 in the assay on rat adipocyte lipolysis turned out to be 12 µM; on Canine cardiac lipases, 10 µM.

As for `COc1ccc(NC(=O)Oc2cccc3ocnc23)cc1` [Example 4, 4-Benzoxazoyl N-(4-methoxyphenyl)carbanamate], the “In Vivo Lipolysis % Inhib. at mg/Kg” value with In Vivo Lipolysis (100 mg/Kg i.p.) was found to be 40%. The values for the IC50 in the assay on rat adipocyte lipolysis and at Canine cardiac lipases were 2.4 µM and 79 µM, respectively.
